# Entries after “also recorded” stand apart in the source; their conditions may differ.
# Tests used:
# neprilysin (NEP 24.11) = settings: cited from earlier work
# [1] = system: dipeptidyl peptidase-4 (DPP-4); settings: cited from earlier work
# chymotrypsin [2] = target: T1, chymotrypsin (Bos taurus, UniProt P00766); assay: Protease assay with chymotrypsin (HPLC); assay type: in vitro ADME; settings: 50 μg/mL chymotrypsin
# T1 construct: purchased Promega V1062
# Experimental: (§1) An HPLC method from the literature was used to assess protease action on selected compounds.^29,31 Two nmol of solid peptide was dissolved in 40 μL of TBS pH 8.0 (resulting concentration of peptide=40 μM) before protease was added. Chymotrypsin was purchased from Promega (Fitchburg, Wis.; catalog #V1062), and neprilysin was purchased from Reprokine. Ltd. (Valley Cottage, N.Y.; catalog #RKP08473); stock solutions of 250 μg/mL chymotrypsin and 200 μg/mL neprilysin in water were prepared. A 10 μL aliquot of protease stock solution was added to 40 μL of 40 μM peptide solution to begin the reaction. Periodically, a 10 μL aliquot of the solution was removed, and protease action was halted by adding this aliquot to 100 μL of 1% aqueous TFA solution. A portion (100 μL) of the quenched solution was injected onto an HPLC column using the conditions described under “Peptide Synthesis”, and peaks were analyzed using MALDI-TOF MS. The time course of peptide degradation was experimentally determined by integrating the area of each peak in a series of HPLC traces. The area percent of parent peptide (relative to the initial trace) was calculated for each trace and plotted in GraphPad Prism as an exponential decay to determine half-life values.
# (§2) ID. […] Major backbone cut sites are indicated with double front slashes. […] Digestion occurs at three major cleavage sites. […] ID. NO: 7 with 50 μg/mL chymotrypsin in TBS pH 8.0 at room temperature. […] ID. NO: 9 with 50 μg/mL chymotrypsin in TBS pH 8.0 at room temperature. This peptide has seven substitutions, α→Aib.
# chymotrypsin [3] = system: T2, chymotrypsin; assay: Protease assay with chymotrypsin (HPLC); assay type: in vitro ADME; settings: chymotrypsin (50 μg/mL) in TBS, 50 μg/mL chymotrypsin, TBS pH 8.0, room temperature
# T2 construct: purchased Promega V1062
# Experimental: as §1, §2
# neprilysin = target: T3, neprilysin (Homo sapiens, UniProt P08473); assay: Protease assay with neprilysin (HPLC); assay type: in vitro ADME; settings: 40 μg/mL neprilysin
# T3 construct: purchased Reprokine; Ltd. RKP08473
# T3 sequence (P08473 whole entry): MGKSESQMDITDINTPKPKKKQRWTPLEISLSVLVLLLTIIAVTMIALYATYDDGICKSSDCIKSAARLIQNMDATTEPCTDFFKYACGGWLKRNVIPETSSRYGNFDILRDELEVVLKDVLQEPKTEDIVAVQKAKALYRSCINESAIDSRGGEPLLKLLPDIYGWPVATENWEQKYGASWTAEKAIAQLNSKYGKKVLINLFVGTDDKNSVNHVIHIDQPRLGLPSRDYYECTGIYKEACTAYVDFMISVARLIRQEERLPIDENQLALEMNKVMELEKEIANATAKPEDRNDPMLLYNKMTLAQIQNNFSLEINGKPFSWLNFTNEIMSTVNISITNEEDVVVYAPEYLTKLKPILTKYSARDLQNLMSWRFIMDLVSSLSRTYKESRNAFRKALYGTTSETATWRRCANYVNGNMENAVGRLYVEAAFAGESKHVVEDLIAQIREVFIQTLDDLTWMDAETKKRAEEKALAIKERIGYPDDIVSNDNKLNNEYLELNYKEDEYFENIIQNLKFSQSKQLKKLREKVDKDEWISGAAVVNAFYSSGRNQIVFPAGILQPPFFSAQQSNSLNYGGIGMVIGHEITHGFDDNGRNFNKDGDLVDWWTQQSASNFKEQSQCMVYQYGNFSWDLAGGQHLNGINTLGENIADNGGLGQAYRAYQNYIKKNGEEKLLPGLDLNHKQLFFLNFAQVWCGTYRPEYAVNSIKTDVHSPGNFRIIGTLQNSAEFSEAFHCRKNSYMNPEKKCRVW
# Experimental: An HPLC method from the literature was used to assess protease action on selected compounds.^29,31 Two nmol of solid peptide was dissolved in 40 μL of TBS pH 8.0 (resulting concentration of peptide=40 μM) before protease was added. Chymotrypsin was purchased from Promega (Fitchburg, Wis.; catalog #V1062), and neprilysin was purchased from Reprokine. Ltd. (Valley Cottage, N.Y.; catalog #RKP08473); stock solutions of 250 μg/mL chymotrypsin and 200 μg/mL neprilysin in water were prepared. A 10 μL aliquot of protease stock solution was added to 40 μL of 40 μM peptide solution to begin the reaction. Periodically, a 10 μL aliquot of the solution was removed, and protease action was halted by adding this aliquot to 100 μL of 1% aqueous TFA solution. […] The time course of peptide degradation was experimentally determined by integrating the area of each peak in a series of HPLC traces. The area percent of parent peptide (relative to the initial trace) was calculated for each trace and plotted in GraphPad Prism as an exponential decay to determine half-life values.
# Major backbone cut sites, as determined by MALDI-TOF-MS, are indicated with double front slashes.
# DPP-4 [4] = target: T4, DPP-4 (Homo sapiens, UniProt P27487); assay: Protease assay with DPP-4 (HPLC); assay type: in vitro ADME; settings: TBS pH 8.0, 37° C.
# T4 construct: purchased EMD Biosciences 317640
# T4 sequence (P27487 whole entry): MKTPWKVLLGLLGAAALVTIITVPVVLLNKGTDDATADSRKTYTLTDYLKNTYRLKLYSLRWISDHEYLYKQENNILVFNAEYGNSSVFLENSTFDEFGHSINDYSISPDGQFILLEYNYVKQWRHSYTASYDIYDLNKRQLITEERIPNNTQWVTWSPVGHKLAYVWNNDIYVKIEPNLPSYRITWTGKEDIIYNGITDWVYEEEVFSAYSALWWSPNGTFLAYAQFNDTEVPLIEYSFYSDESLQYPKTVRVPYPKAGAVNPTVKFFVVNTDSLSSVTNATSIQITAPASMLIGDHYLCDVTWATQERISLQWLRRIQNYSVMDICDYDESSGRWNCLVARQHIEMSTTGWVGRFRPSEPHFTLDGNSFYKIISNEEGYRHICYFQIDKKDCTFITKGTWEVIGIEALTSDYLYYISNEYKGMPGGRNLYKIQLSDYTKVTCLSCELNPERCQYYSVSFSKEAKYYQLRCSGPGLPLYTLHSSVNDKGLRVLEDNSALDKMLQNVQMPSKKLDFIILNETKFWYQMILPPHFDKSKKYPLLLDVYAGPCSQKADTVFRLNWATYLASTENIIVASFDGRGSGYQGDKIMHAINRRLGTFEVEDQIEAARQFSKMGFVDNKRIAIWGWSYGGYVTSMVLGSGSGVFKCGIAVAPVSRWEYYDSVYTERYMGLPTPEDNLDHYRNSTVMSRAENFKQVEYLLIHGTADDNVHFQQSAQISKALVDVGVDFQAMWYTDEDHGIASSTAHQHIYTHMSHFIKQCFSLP
# human GLP-1 receptor = human GLP-1 receptor (Homo sapiens, UniProt P43220); assay: GLP-1R activation monitored by cAMP production in HEK293 cells
# human GLP-1 receptor, sequence (P43220 24-463): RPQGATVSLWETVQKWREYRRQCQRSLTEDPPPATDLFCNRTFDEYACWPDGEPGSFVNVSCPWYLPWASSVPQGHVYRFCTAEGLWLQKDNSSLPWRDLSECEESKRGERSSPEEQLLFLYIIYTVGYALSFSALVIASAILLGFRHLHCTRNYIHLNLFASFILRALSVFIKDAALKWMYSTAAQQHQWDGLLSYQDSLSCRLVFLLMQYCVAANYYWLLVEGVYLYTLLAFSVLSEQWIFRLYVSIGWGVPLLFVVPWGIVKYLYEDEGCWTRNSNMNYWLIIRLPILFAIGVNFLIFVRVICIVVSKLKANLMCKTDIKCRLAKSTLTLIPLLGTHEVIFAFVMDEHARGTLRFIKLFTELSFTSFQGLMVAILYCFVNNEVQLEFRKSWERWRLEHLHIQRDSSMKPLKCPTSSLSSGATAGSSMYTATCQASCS
# DPP-4 [5] = assay: DPP-4 (EMD Biosciences; catalog #317640) in TBS buffer, pH 8.0; settings: 37° C., up to seven (7) days
# C57BL/6J mice = assay: Glucose tolerance test (GTT) in mice; assay type: in vivo, mouse
# Experimental: ID. NO: 7 was administered to mice by interperitoneal (i.p.) injection at a 1 mg/kg dose, or lower for SEQ. ID. NO: 7, using an injection volume of 10 mL/kg body mass. Each peptide was first dissolved in prefiltered DMSO at 10 mg/mL concentration, then diluted >20-fold with TBS buffer, pH 7.4 (final DMSO conc.=<5%). Glucose was administered by i.p. injection with a sterile-filtered 30% D-glucose-saline solution at a 1.5 g/kg dose using a 5 mL/kg injection volume.
# Thirteen-week-old male C57BL/6J mice (The Jackson Laboratory) (n=4) were fasted overnight on wood chip bedding for 15 hours prior to the experiment. Blood glucose levels were monitored from a tail tip bleed using an ACCU-CHEK®-brand blood glucose meter (Roche Diagnostics, Indianapolis, Ind.). Fasting glucose levels were measured at 75 minutes prior to the glucose injection (t=−75 min), and the compound injection was performed 60 minutes prior to the glucose injection (t=−60 min). Glucose levels were measured immediately prior to the glucose injection (t=0 min) to assess any changes in the baseline glucose caused by peptide administration. Blood glucose levels were monitored at 30, 60, 90, and 120 minutes after injection of glucose.
# Five hours after peptide injection, the mice received a second injection of 1.5 g/kg glucose. Blood glucose was monitored at 30 min after this second glucose injection. Mice were sacrificed by CO2 inhalation at the conclusion of the GTT.
compound,measurement,setting,value
H-HAEGTFTSDVSSYLEGQAAKEFIAWLVKGRG-NH2,cleaved bond,neprilysin (NEP 24.11),Asp15-Val16; also recorded: cleaves after Ser18; also recorded: cleaves after Tyr19; also recorded: cleaves after Glu27; also recorded: cleaves after Phe28; also recorded: cleaves after Trp31
same,cleaved bond,[1],cleaves after Ala8
CC[C@H](C)[C@H](NC(=O)[C@H](Cc1ccccc1)NC(=O)[C@H](CCC(=O)O)NC(=O)[C@H]1CCC[C@@H]1NC(=O)[C@H](C)NC(=O)[C@H](C)NC(=O)[C@H](CCC(N)=O)NC(=O)[C@H]1CCC[C@@H]1NC(=O)[C@H](CCC(=O)O)NC(=O)[C@H](CC(C)C)NC(=O)[C@H](Cc1ccc(O)cc1)NC(=O)[C@H]1CCC[C@@H]1NC(=O)[C@H](CO)NC(=O)C(C)(C)NC(=O)[C@H](CC(=O)O)NC(=O)[C@H](CO)NC(=O)[C@@H](NC(=O)[C@H](Cc1ccccc1)NC(=O)[C@@H](NC(=O)CNC(=O)[C@H](CCC(=O)O)NC(=O)C(C)(C)NC(=O)[C@@H](N)Cc1c[nH]cn1)[C@@H](C)O)[C@@H](C)O)C(=O)N[C@H]1CCC[C@@H]1C(=O)N[C@@H](Cc1c[nH]c2ccccc12)C(=O)N[C@@H](CC(C)C)C(=O)N[C@H](C(=O)N[C@H]1CNC[C@@H]1C(=O)NCC(=O)N[C@@H](CCCNC(=N)N)C(=O)NCC(N)=O)C(C)C [SEQ. ID. NO: 7],half-life,"chymotrypsin [2]; 40 μM peptide, TBS pH 8.0, room temperature, read-out: t1/2 with chymotrypsin (converted)",12.5 min
same,"remaining at 25 min, 40 μM","chymotrypsin [3]; 1500 seconds, read-out: peptide remaining after 1500 seconds",> 25%
same,t1/2 with neprilysin relative to native GLP-1 peptide,neprilysin,more than 100 times
same,cleavage by DPP-4 over seven days (in words),DPP-4 [4]; monitored seven days,no cleavage was detected
same,Max Response (% GLP-1 max),"human GLP-1 receptor; HEK293 cells, cAMP production",88 % GLP-1 max
same,"cAMP production, AVERAGES at M Concentrations −7",human GLP-1 receptor; peptide concentration −7 (log M),88.32
same,"cAMP production, AVERAGES at M Concentrations −8",human GLP-1 receptor; peptide concentration −8 (log M),63.0221
same,"cAMP production, AVERAGES at M Concentrations −9",human GLP-1 receptor; peptide concentration −9 (log M),35
same,"cAMP production, AVERAGES at M Concentrations −10",human GLP-1 receptor; peptide concentration −10 (log M),4.469
same,"cAMP production, AVERAGES at M Concentrations −11",human GLP-1 receptor; peptide concentration −11 (log M),3.504
same,"cAMP production, AVERAGES at M Concentrations −12",human GLP-1 receptor; peptide concentration −12 (log M),2.813
same,"cAMP production, AVERAGES at M Concentrations −13",human GLP-1 receptor; peptide concentration −13 (log M),3.831
H-HAEGTFTSDASXYLEXQAAXEFIXWLVZGRG-NH2,not cleaved,DPP-4 [5],no cleavage was detected during seven (7) days
CC[C@H](C)[C@H](NC(=O)[C@H](Cc1ccccc1)NC(=O)[C@H](CCC(=O)O)NC(=O)[C@H](CCCCN)NC(=O)[C@H](C)NC(=O)[C@H](C)NC(=O)[C@H](CCC(N)=O)NC(=O)CNC(=O)[C@H](CCC(=O)O)NC(=O)[C@H](CC(C)C)NC(=O)[C@H](Cc1ccc(O)cc1)NC(=O)[C@H](CO)NC(=O)[C@H](CO)NC(=O)[C@@H](NC(=O)[C@H](CC(=O)O)NC(=O)[C@H](CO)NC(=O)[C@@H](NC(=O)[C@H](Cc1ccccc1)NC(=O)[C@@H](NC(=O)CNC(=O)[C@H](CCC(=O)O)NC(=O)[C@H](C)NC(=O)[C@@H](N)Cc1c[nH]cn1)[C@@H](C)O)[C@@H](C)O)C(C)C)C(=O)N[C@@H](C)C(=O)N[C@@H](Cc1c[nH]c2ccccc12)C(=O)N[C@@H](CC(C)C)C(=O)N[C@H](C(=O)N[C@@H](CCCCN)C(=O)NCC(=O)N[C@@H](CCCNC(=N)N)C(=O)NCC(N)=O)C(C)C [SEQ. ID. NO: 1],"number of major cleavage sites, chymotrypsin",chymotrypsin [2]; MALDI-TOF-MS,three
same,half-life at 40 μM,"chymotrypsin [2]; chymotrypsin (isolated protease), 40 μM peptide, TBS pH 8.0, room temperature, read-out: t1/2 with chymotrypsin (converted)",0.317 min
same,"remaining at 1 min, 40 μM","chymotrypsin [3]; 60 seconds, read-out: peptide remaining after 60 seconds of digestion",< 25%
same,"number of major cleavage sites, neprilysin",neprilysin; MALDI-TOF-MS,five
same,half-life at 40 μM,"neprilysin; neprilysin (isolated protease), pH 8, 40 μM peptide, TBS pH 8.0, room temperature, read-out: half-life (t1/2) with neprilysin (converted)",19.8 min
same,half-life at 40 μM,DPP-4 [4]; DPP-4 (isolated protease),13.5 min
same,Average Blood Glucose Level,"C57BL/6J mice; 1 mg/kg i.p., time 0.0 min",81.8 mg/dL
same,Average Blood Glucose Level,"C57BL/6J mice; 1 mg/kg i.p., time 30.0 min",132.8 mg/dL
same,Average Blood Glucose Level,"C57BL/6J mice; 1 mg/kg i.p., time 60.0 min",99.3 mg/dL
same,Average Blood Glucose Level,"C57BL/6J mice; 1 mg/kg i.p., time 90.0 min",74.8 mg/dL
same,Average Blood Glucose Level,"C57BL/6J mice; 1 mg/kg i.p., time 120.0 min",86.0 mg/dL
same,Average Blood Glucose Level,"C57BL/6J mice; 1 mg/kg i.p., time −60.0 min (peptide injection)",108.0 mg/dL
same,Average Blood Glucose Level at 30 min (column head AUC),"C57BL/6J mice; 1 mg/kg i.p., Table 7, 30 min after second glucose injection given five hours after peptide",250.5
same,glucose-lowering effect in GTT repeated 5 hours after agonist administration (in words),"C57BL/6J mice; 1 mg/kg, 30 min after the second glucose challenge",no significant difference

# — US9738697B2 (Wisconsin Alumni Research Foundation, priority 2013, dated 2017)
